Test results published in patent US11773381B2, “Cell penetrating peptide, conjugate comprising same, and composition comprising conjugate” (GemVax & KAEL CO., LTD., priority 2012, dated 2023).

System: HeLa cell
Assay: Cell penetration of pep(CPP)-FITC conjugates in HeLa cell line, flow cytometry (FACS)
Format: cell-based, Homo sapiens
Conditions: HeLa cells, 20 μM of each carrier peptide combined with FITC, 37° C. for an hour, control cells treated only FITC
Method: Homo sapiens cervix adenocarcinoma cell line as HeLa cell lines were purchased from ATCC (American Type Cell Culture). The cells were cultured in MEM supplemented with 10% fetal bovine serum (Invitrogen, USA), Earle's salts, non-essential amino acids, sodium pyruvate and 100 μg/ml penicillin and 10 units/ml streptomycin and cultured at 37° C., 5% CO2 incubator.
Flow cytometry and Confocal microscope analysis were performed to compare the between degree of cellular uptake of the cells were treated with SEQ ID NO: 1 to SEQ ID NO: 156, pep (CPP) and control.
The cell line was divided in a 6-well plate and cultured in a medium containing 10% fetal bovine serum (Invitrogen, USA), […] at 37° C., 5% CO2 incubator for 12 hours. After washing the cell line with PBS, starvation was induced in a Minimum Essential Medium for an hour. 20 μM of each carrier peptide was treated and cultured at 37° C. for an hour. After repeating the step of washing the cells with PBS for three times, Trypsin-EDTA was treated form 10 mins at 37° C. to separate the carrier peptide on the outside of the cell. cells were collected with refrigerated PBS and centrifugation was performed to repeat the step of washing the cells for three times. After then, the cells were suspended in 0.5 ml of PBS containing 4% Paraformaldehyde and fluorescence of the cells was analyzed using FACS Calibur (Becton Dickinson). The cellular uptake aspect of control and various peptides combined with FITC was compared and analyzed by MFI (Mean Fluorescence Intensity).
Analysis results shown in FIG. 1 to FIG. 23 are given in detail in Table 3 below.

LCSLCYGDMENKLFAGIRRD (listed as Homo sapiens) [pep92]
cellular uptake, MFI (Mean Fluorescence Intensity): 19.91 ± 0.51

LSEAEVRQHREARPALLTSR (listed as Homo sapiens) [pep80]
cellular uptake, MFI (Mean Fluorescence Intensity): 12.45 ± 0.46

ARRPGLLG (listed as Homo sapiens) [pep33]
cellular uptake, MFI (Mean Fluorescence Intensity): 14.36 ± 1.63

RKTVVNFPVEDEALGGTAFV (listed as Homo sapiens) [pep95]
cellular uptake, MFI (Mean Fluorescence Intensity): 10.92 ± 0.07

RARRPGLL (listed as Homo sapiens) [pep35]
cellular uptake, MFI (Mean Fluorescence Intensity): 15.54 ± 1.38

LVAPSCAYWVCGPPLYQLGA (LVAPSCAYQVCGPPLYQLGA; listed as Homo sapiens) [pep58]
cellular uptake, MFI (Mean Fluorescence Intensity): 19.87 ± 0.94

PAAGVCAREKPQGSVAAPEE (listed as Homo sapiens) [pep71]
cellular uptake, MFI (Mean Fluorescence Intensity): 16.61 ± 0.88

AHGHVRKAFKSHVSTLTDLQ (listed as Homo sapiens) [pep145]
cellular uptake, MFI (Mean Fluorescence Intensity): 11.97 ± 0.78

RPIVNMDYVVGARTFRREKR (listed as Homo sapiens) [pep139]
cellular uptake, MFI (Mean Fluorescence Intensity): 29.95 ± 0.28

RLVPPGLWGSRHNERRFLRN (listed as Homo sapiens) [pep131]
cellular uptake, MFI (Mean Fluorescence Intensity): 32.51 ± 2.38

LLGASVLGL (listed as Homo sapiens) [pep12]
cellular uptake, MFI (Mean Fluorescence Intensity): 22 ± 2.6

QMPAHGLFPWCGLLLDTRTL (listed as Homo sapiens) [pep96]
cellular uptake, MFI (Mean Fluorescence Intensity): 308.53 ± 3.61

KSVWSKLQSIGIRQH (listed as Homo sapiens) [pep48]
cellular uptake, MFI (Mean Fluorescence Intensity): 26.51 ± 2.36

RPSLTGARRLVETIFLGSRP (listed as Homo sapiens) [pep125]
cellular uptake, MFI (Mean Fluorescence Intensity): 28.62 ± 2.12

TQLSRKLPGTTLTALEAAAN (listed as Homo sapiens) [pep105]
cellular uptake, MFI (Mean Fluorescence Intensity): 13.23 ± 2.21

GVPLGLPAPGARRRGGSASR (listed as Homo sapiens) [pep118]
cellular uptake, MFI (Mean Fluorescence Intensity): 14.69 ± 0.33

SGPRRRLGCERAWNHSVREA (listed as Homo sapiens) [pep117]
cellular uptake, MFI (Mean Fluorescence Intensity): 23.11 ± 2.46

MPRAPRCRAVRSLLRSHYRE (listed as Homo sapiens) [pep50]
cellular uptake, MFI (Mean Fluorescence Intensity): 2228.76 ± 3.68

PALPSDFKTILD (listed as Homo sapiens) [pep106]
cellular uptake, MFI (Mean Fluorescence Intensity): 12.45 ± 0.38

AAEHRLREEILAKFLHWLMS (listed as Homo sapiens) [pep134]
cellular uptake, MFI (Mean Fluorescence Intensity): 78.05 ± 2.26

RGDPAAFRALVAQCLVCVPW (listed as Homo sapiens) [pep52]
cellular uptake, MFI (Mean Fluorescence Intensity): 16.67 ± 2.22

TKKFISLGKHAKLSLQELTW (listed as Homo sapiens) [pep132]
cellular uptake, MFI (Mean Fluorescence Intensity): 26.39 ± 0.95

WMPGTPRRLPRLPQRYWQMR (listed as Homo sapiens) [pep126]
cellular uptake, MFI (Mean Fluorescence Intensity): 3362.29 ± 3.24

RTFVLRVRAQDPPPE (listed as Homo sapiens) [pep8]
cellular uptake, MFI (Mean Fluorescence Intensity): 17.75 ± 1.96

RPALLTSRLRFIPKP (listed as Homo sapiens) [pep41]
cellular uptake, MFI (Mean Fluorescence Intensity): 28.97 ± 3.44

ALFSVLNYER (listed as Homo sapiens) [pep15]
cellular uptake, MFI (Mean Fluorescence Intensity): 35.61 ± 1.29

YERARRPGLL (listed as Homo sapiens) [pep20]
cellular uptake, MFI (Mean Fluorescence Intensity): 20.73 ± 2.45

ARRPGLLGA (listed as Homo sapiens) [pep26]
cellular uptake, MFI (Mean Fluorescence Intensity): 14.81 ± 1.77

RRSPGVGCVPAAEHRLREEI (listed as Homo sapiens) [pep76]
cellular uptake, MFI (Mean Fluorescence Intensity): 13.98 ± 0.11

LKRVQLRELSEAEVRQ (listed as Homo sapiens) [pep49]
cellular uptake, MFI (Mean Fluorescence Intensity): 13.91 ± 0.51

SHVSTLTDLQPYMRQFVAHL (listed as Homo sapiens) [pep88]
cellular uptake, MFI (Mean Fluorescence Intensity): 16.43 ± 0.55

EDTDPRRLVQLLRQHSSPWQ (listed as Homo sapiens) [pep72]
cellular uptake, MFI (Mean Fluorescence Intensity): 17.57 ± 2.31

ALFSVLNYERARRPGLLGASVLGLDDIHRA [pep2]
cellular uptake, MFI (Mean Fluorescence Intensity): 37.6 ± 1.89

RAWNHSVREAGVPLGLPAPG (listed as Homo sapiens) [pep60]
cellular uptake, MFI (Mean Fluorescence Intensity): 15.79 ± 1.63

CGPPLYQLGAATQARPPPHA (listed as Homo sapiens) [pep116]
cellular uptake, MFI (Mean Fluorescence Intensity): 20.5 ± 0.97

ERARRPGL (listed as Homo sapiens) [pep32]
cellular uptake, MFI (Mean Fluorescence Intensity): 11.98 ± 2.92

FIPKPDGLRPIVNMD (listed as Homo sapiens) [pep42]
cellular uptake, MFI (Mean Fluorescence Intensity): 20.82 ± 1.93

KLQSIGIRQHLKRVQ (listed as Homo sapiens) [pep39]
cellular uptake, MFI (Mean Fluorescence Intensity): 21.4 ± 0.99

VLGLDDIHRA (listed as Homo sapiens) [pep13]
cellular uptake, MFI (Mean Fluorescence Intensity): 14.01 ± 1.32
